Earlier results, collected in patent publication US20120070594A1, “HYDROGENATED BISPHENOL-A-BASED POLYMERS AS SUBSTITUTES FOR BISPHENOL-A-BASED POLYMERS” (priority 2010, published 2012).

Columns and labels:
[1] = tested on: rat

SMILES | LD50 (rat) [1] | pKa
CC(C)(C1CCC(O)CC1)C1CCC(O)CC1 (stereo not drawn) [HBPA, 4-[2-(4-hydroxycyclohexyl)propan-2-yl]cyclohexan-1-ol] | 5660 mg per kg | 17
CC(C)(c1ccc(O)cc1)c1ccc(O)cc1 [BPA, 4,4′-(Propane-2,2-diyl)diphenol, reference compound] | – | 9.6
